Experimental data published in patent publication US20260226073A1 (AURIGENE ONCOLOGY LIMITED, priority 2023, published 2026).

Target: T1, human recombinant CBL-b (human Biotin CBL-b recombinant protein a.a. 39-426) (Homo sapiens, UniProt Q13191)
T1 construct: human Biotin CBL-b recombinant protein a.a; 39-426; Biotin (biotinylated); made in house
Experiment: Biochemical assay for CBL-b inhibition (ligand displacement TR-FRET)
Type: binding
Details: 50 nM CBL-b, 0.3 μM Bodipy FL-Probe, read-out: IC50 (CBL-b inhibition, group)
Procedure, shortened: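 Biotinylated CBL-b (a.a. 39-426, 50 nM final) pre-incubated with compound 60 min at RT in HEPES/NaCl/Triton/BSA/TCEP buffer, then Bodipy FL probe (0.3 μM final) 60 min, then terbium-streptavidin 60 min. TR-FRET read at 665/615 nm; IC50 and % max inhibition from sigmoidal fits.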

T1 sequence (Q13191 39-426): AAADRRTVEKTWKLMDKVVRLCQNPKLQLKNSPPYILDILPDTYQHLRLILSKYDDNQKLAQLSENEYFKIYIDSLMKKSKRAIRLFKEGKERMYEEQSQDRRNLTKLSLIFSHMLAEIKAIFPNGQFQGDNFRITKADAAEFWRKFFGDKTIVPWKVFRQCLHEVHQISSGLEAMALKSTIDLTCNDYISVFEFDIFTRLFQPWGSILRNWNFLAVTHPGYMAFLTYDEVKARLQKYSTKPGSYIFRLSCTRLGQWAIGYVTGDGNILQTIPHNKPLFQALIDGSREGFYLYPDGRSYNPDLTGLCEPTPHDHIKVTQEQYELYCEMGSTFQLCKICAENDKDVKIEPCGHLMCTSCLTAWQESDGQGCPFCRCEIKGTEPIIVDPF

| Structure (SMILES) | IC50 [nM] |
| --- | --- |
| Cn1cnnc1CC1(c2ccc3c(c2)C(=O)N(c2cc(CN4CCC5OCCC54)cc(Cl)n2)C3)COC1 (stereo not drawn) [Compound 192] | 300 to 5000 |
| CC1CCCN1Cc1cc(Cl)nc(N2Cc3ccc(C4(Cc5nncn5C)COC4)cc3C2=O)c1 (stereo not drawn) [Compound 200] | 300 to 5000 |
| Cn1cnnc1CC1(c2ccc3c(c2)C(=O)N(c2cc(CNCc4ncco4)cc(Cl)n2)C3)COC1 [Compound 208] | 300 to 5000 |
| Cn1cc(CNCc2cc(Cl)nc(N3Cc4ccc(C5(Cc6nncn6C)COC5)cc4C3=O)c2)cn1 [Compound 211] | 300 to 5000 |
| Cn1ccc(CNCc2cc(Cl)nc(N3Cc4ccc(C5(Cc6nncn6C)COC5)cc4C3=O)c2)n1 [Compound 212] | 300 to 5000 |
| Cn1cnnc1CC1(c2ccc3c(c2)C(=O)N(c2cc(CNC(C)(C)C4CC4)cc(Cl)n2)C3)COC1 [Compound 228] | 300 to 5000 |
| Cc1cccc(CNCc2cc(Cl)nc(N3Cc4ccc(C5(Cc6nncn6C)COC5)cc4C3=O)c2)n1 [Compound 229] | 300 to 5000 |
| Cc1ccnc(CNCc2cc(Cl)nc(N3Cc4ccc(C5(Cc6nncn6C)COC5)cc4C3=O)c2)c1 [Compound 236] | 300 to 5000 |
| CC1CCNC(c2cc(Cl)nc(N3Cc4ccc(C5(Cc6nncn6C)COC5)cc4C3=O)c2)C1 (stereo not drawn) [Compound 249] | 300 to 5000 |
| Cc1cc(CNCC2CC2)cc(N2Cc3ccc(-c4ccc(F)c(F)c4-c4nncn4C)cc3C2=O)n1 [Compound 257] | 300 to 5000 |
| Cc1cc(CNCC2CC2)cc(N2Cc3ccc(-c4cccnc4-c4nncn4C)cc3C2=O)n1 [Compound 266] | 300 to 5000 |
| Cc1cc(CNCC2CC2)cc(N2Cc3ccc(-c4ccc(Cl)cc4-c4nnc5ccccn45)cc3C2=O)n1 [Compound 268] | 300 to 5000 |
| Cc1cc(CNCC2CC2)cc(N2Cc3ccc(-c4cc(Cl)ccc4-c4nncn4C)cc3C2=O)n1 [Compound 270] | 300 to 5000 |
| Cc1cc(CN[S+]([O-])C(C)(C)C)cc(N2Cc3ccc(-c4ccc(F)cc4-c4nncn4C)cc3C2=O)n1 (stereo not drawn) [Compound 285] | 300 to 5000 |
| Cc1cc(CNCC2CC2)cc(N2Cc3ccc(-c4ccc(F)cc4-c4ncco4)cc3C2=O)n1 [Compound 287] | 80 to 300 |
| Cc1cc(CN2CCC[C@H]2CO)cc(N2Cc3ccc(-c4ccc(F)cc4-c4nncn4C)cc3C2=O)n1 [Compound 288] | 300 to 5000 |
| CO[C@H]1CCN(Cc2cc(C)nc(N3Cc4ccc(-c5ccc(F)cc5-c5nncn5C)cc4C3=O)c2)C1 [Compound 290] | 300 to 5000 |
| Cc1cc(CNCC2(O)COC2)cc(N2Cc3ccc(-c4ccc(F)cc4-c4nncn4C)cc3C2=O)n1 [Compound 291] | 80 to 300 |
| Cc1cc(CNCC2(C)COC2)cc(N2Cc3ccc(-c4ccc(F)cc4-c4nncn4C)cc3C2=O)n1 [Compound 292] | 80 to 300 |

| Structure (SMILES) | IC50 [nM] |
| --- | --- |
| Cc1cc(CN[C@H](CO)C(C)C)cc(N2Cc3ccc(-c4ccc(F)cc4-c4nncn4C)cc3C2=O)n1 [Compound 297] | 80 to 300 |
| Cc1cc(CNC(C)(C)C)cc(N2Cc3ccc(-c4ccc(F)cc4-c4nncn4C)cc3C2=O)n1 [Compound 299] | 300 to 5000 |
| Cc1cc(CNCCO)cc(N2Cc3ccc(-c4ccc(F)cc4-c4nncn4C)cc3C2=O)n1 [Compound 301] | 80 to 300 |
| COCCN(Cc1cc(C)nc(N2Cc3ccc(-c4ccc(F)cc4-c4nncn4C)cc3C2=O)c1)CC1CC1 [Compound 313] | 300 to 5000 |
| Cc1cc(CNCC2(CO)CC2)cc(N2Cc3ccc(-c4ccc(F)cc4-c4nncn4C)cc3C2=O)n1 [Compound 316] | 80 to 300 |
| CCN1CCC[C@@H]1CNCc1cc(C)nc(N2Cc3ccc(-c4ccc(F)cc4-c4nncn4C)cc3C2=O)c1 [Compound 317] | 300 to 5000 |
| Cc1cc(CNCC(O)CN)cc(N2Cc3ccc(-c4ccc(F)cc4-c4nncn4C)cc3C2=O)n1 (stereo not drawn) [Compound 318] | 300 to 5000 |
| Cc1cc(CN[C@H](CO)CC(C)C)cc(N2Cc3ccc(-c4ccc(F)cc4-c4nncn4C)cc3C2=O)n1 [Compound 322] | 80 to 300 |
| Cc1cc(CNC(C2CC2)C(F)(F)F)cc(N2Cc3ccc(-c4ccc(F)cc4-c4nncn4C)cc3C2=O)n1 (stereo not drawn) [Compound 324] | 300 to 5000 |
| CCC(NCc1cc(C)nc(N2Cc3ccc(-c4ccc(F)cc4-c4nncn4C)cc3C2=O)c1)C(=O)NC (stereo not drawn) [Compound 327] | 300 to 5000 |
| Cc1cc(CN)cc(N2Cc3ccc(-c4ccc(F)cc4-c4nncn4C)cc3C2=O)n1 [Compound 331, 2-(4-(Aminomethyl)-6-methylpyridin-2-yl)-6-(4-fluoro-2-(4-methyl-4H-1,2,4triazol-3-yl)phenyl)isoindolin-1-one] | 80 to 300 |
| C=C(c1cc(C)nc(N2Cc3ccc(-c4ccc(F)cc4-c4nncn4C)cc3C2=O)c1)c1cnn(C)c1 [Compound 332, 6-(4-Fluoro-2-(4-methyl-4H-1,2,4-triazol-3-yl)phenyl)-2-(6-methyl-4-(1-(1-methyl-1H-pyrazol-4-yl)vinyl)pyridin-2-yl)isoindolin-1-one] | 80 to 300 |
| Cc1cc(C(C)c2cnn(C)c2)cc(N2Cc3ccc(-c4ccc(F)cc4-c4nncn4C)cc3C2=O)n1 (stereo not drawn) [Compound 333, 6-(4-Fluoro-2-(4-methyl-4H-1,2,4-triazol-3-yl)phenyl)-2-(6-methyl-4-(1-(1-methyl-1H-pyrazol-4-yl)ethyl)pyridin-2-yl)isoindolin-1-one] | 300 to 5000 |
| Cc1cc(C(C)c2nccn2C)cc(N2Cc3ccc(-c4ccc(F)cc4-c4nncn4C)cc3C2=O)n1 (stereo not drawn) [Compound 334, 6-(4-Fluoro-2-(4-methyl-4H-1,2,4-triazol-3-yl)phenyl)-2-(6-methyl-4-(1-(1-methyl-1H-imidazol-2-yl)ethyl)pyridin-2-yl)isoindolin-1-one] | 300 to 5000 |
| CN1CCC/C(=C/c2cc(Cl)nc(N3Cc4ccc(C5(Cc6nncn6C)COC5)cc4C3=O)c2)C1 [Compound 335, (Z)-2-(6-Chloro-4-((1-methylpiperidin-3-ylidene)methyl)pyridin-2-yl)-6-(3-((4-methyl-4H-1,2,4-triazol-3-yl)methyl)oxetan-3-yl)isoindolin-1-one] | 80 to 300 |
| Cc1cc(NCC2CCCN2)cc(N2Cc3ccc(C4(Cc5nncn5C)COC4)cc3C2=O)n1 (stereo not drawn) [Compound 336, 2-(6-Methyl-4-((pyrrolidin-2-ylmethyl)amino)pyridin-2-yl)-6-(3-((4-methyl-4H-1,2,4-triazol-3-yl)methyl)oxetan-3-yl)isoindolin-1-one] | 300 to 5000 |
| Cc1cc(CNC(CC(C)(C)O)C2CC2)cc(N2Cc3ccc(-c4ccc(F)cc4-c4nncn4C)cc3C2=O)n1 (stereo not drawn) [Compound 338, 2-(4-(((1-Cyclopropyl-3-hydroxy-3-methylbutyl)amino)methyl)-6-methylpyridin-2-yl)-6-(4-fluoro-2-(4-methyl-4H-1,2,4-triazol-3-yl)phenyl)isoindolin-1-one] | 80 to 300 |
| Cc1cc(CNCC2CCCCN2)cc(N2Cc3ccc(-c4ccc(F)cc4-c4nncn4C)cc3C2=O)n1 (stereo not drawn) [Compound 339, 6-(4-Fluoro-2-(4-methyl-4H-1,2,4-triazol-3-yl)phenyl)-2-(6-methyl-4-(((piperidin-2-ylmethyl)amino)methyl)pyridin-2-yl)isoindolin-1-one] | 300 to 5000 |

The remaining lines, values ahead:

| IC50 [nM] | Structure (SMILES) |
| --- | --- |
| 80 to 300 | Cn1cnnc1CC1(c2ccc3c(c2)C(=O)N(c2cc(CNCc4nccs4)cc(Cl)n2)C3)COC1 [Compound 194] |
| 80 to 300 | Cn1cnnc1CC1(c2ccc3c(c2)C(=O)N(c2cc(CNCc4ccccn4)cc(Cl)n2)C3)COC1 [Compound 203] |
| 80 to 300 | Cn1cnnc1CC1(c2ccc3c(c2)C(=O)N(c2cc(CNCC4(C(F)(F)F)CC4)cc(Cl)n2)C3)COC1 [Compound 204] |
| 80 to 300 | Cc1ccc(CNCc2cc(Cl)nc(N3Cc4ccc(C5(Cc6nncn6C)COC5)cc4C3=O)c2)o1 [Compound 226] |
| 80 to 300 | Cn1cnnc1CC1(c2ccc3c(c2)C(=O)N(c2cc(CNC45CC(C4)C5)cc(Cl)n2)C3)COC1 [Compound 235] |
| 80 to 300 | Cn1cnnc1CC1(c2ccc3c(c2)C(=O)N(c2cc(CNc4ccccn4)cc(Cl)n2)C3)COC1 [Compound 238] |
| 80 to 300 | Cn1cnnc1CC1(c2ccc3c(c2)C(=O)N(c2cc(CNCC4(C#N)CCC4)cc(Cl)n2)C3)COC1 [Compound 243] |
| 80 to 300 | CC1CCC(CNCc2cc(Cl)nc(N3Cc4ccc(C5(Cc6nncn6C)COC5)cc4C3=O)c2)O1 (stereo not drawn) [Compound 250] |
| 80 to 300 | CCCC(Cc1nncn1C)c1ccc2c(c1)C(=O)N(c1cc(CNCC3CC3)cc(Cl)n1)C2 (stereo not drawn) [Compound 252] |
| 80 to 300 | COc1cc(CNCC2CCC2)cc(N2Cc3ccc(C(C)Cc4nncn4C)cc3C2=O)n1 (stereo not drawn) [Compound 254] |
| < 80 | Cc1cc(CN2CCC3(CCC3)C2)cc(N2Cc3ccc(-c4ccc(F)cc4-c4nncn4C)cc3C2=O)n1 [Compound 258] |
| 80 to 300 | Cc1cc(CNCC2CC2)cc(N2Cc3ncc(-c4ccc(Cl)cc4-c4nncn4C)cc3C2=O)n1 [Compound 264] |
| 80 to 300 | Cc1cc(CNCC2CC2)cc(N2Cc3ccc(-c4cc(F)c(F)cc4-c4nncn4C)cc3C2=O)n1 [Compound 267] |
| 80 to 300 | Cc1cc(CNCC2CC2)cc(N2Cc3ccc(-c4ccc(Cl)cc4-c4cc[nH]n4)cc3C2=O)n1 [Compound 271] |
| 80 to 300 | Cc1cc(CNCC2CC2)cc(N2Cc3ccc(-c4ccc(C(F)(F)F)cc4-c4nncn4C)cc3C2=O)n1 [Compound 272] |
| 80 to 300 | Cc1cc(CNC(C)(C)CCO)cc(N2Cc3ccc(-c4ccc(Cl)cc4-c4nncn4C)cc3C2=O)n1 [Compound 276] |
| 80 to 300 | Cc1cc(CNS(C)(=O)=O)cc(N2Cc3ccc(-c4ccc(F)cc4-c4nncn4C)cc3C2=O)n1 [Compound 283] |
| 80 to 300 | Cc1cc(CN2CCC[C@@H]2CO)cc(N2Cc3ccc(-c4ccc(F)cc4-c4nncn4C)cc3C2=O)n1 [Compound 286] |
| < 80 | Cc1cc(CNCC2CC2)cc(N2Cc3ccc(-c4ccc(F)cc4-c4nocc4C)cc3C2=O)n1 [Compound 289, 2-(4-(((Cyclopropylmethyl)amino)methyl)-6-methylpyridin-2-yl)-6-(4-fluoro-2-(4-methylisoxazol-3-yl)phenyl)isoindolin-1-one] |
| < 80 | Cc1cc(CN(C)CC2CC2)cc(N2Cc3ccc(-c4ccc(F)cc4-c4nncn4C)cc3C2=O)n1 [Compound 312] |
